Laboratory results from patent US20100120050A1, “Biomarkers For Assessing Altherosclerotic Potential” (ENTELOS, INC., priority 2008, published 2010).
Like-named read-outs stand apart in the source and are kept apart here.

Tests used:
[1] = tested on: hepatic genes (liver)
Experimental: While the molecular target for PPARγ is not in the liver, it represents the effects of changes in metabolism of the whole animal, which impact liver lipoprotein production and clearance.
Male Sprague-Dawley (Crl:CD® (SD)(IGS)BR) rats (Charles River Laboratories, Portage, Mich.), weight matched, 7 to 8 weeks of age, were housed individually in hanging, stainless steel, wire-bottom cages in a temperature (66-77° F.), light (12-hour dark/light cycle) and humidity (30-70%) controlled room. Water and rodent diet were available ad libitum throughout the 5 day acclimatization period and during the 5 day treatment period. Housing and treatment of the animals were in accordance with regulations outlined in the USDA Animal Welfare Act (9 CFR Parts 1, 2 and 3).
Rats (three per group) were dosed daily at either a low or high dose. […] Animals were necropsied on days 0.25, 1, 3, and 5. Up to 13 tissues (e.g., liver, kidney, heart, bone marrow, blood, spleen, brain, intestine, glandular and nonglandular stomach, lung, muscle, and gonads) were collected for histopathological evaluation and microarray expression profiling on the Affymetrix Rat Whole Genome RG230 v2 platform. In addition, a clinical pathology panel consisting of 37 clinical chemistry and hematology parameters was generated from blood samples collected on days 3 and 5.
Gene expression profiling, data processing and quality control were performed using protocols recommended by. Briefly, liver samples from 3 rats were chosen at random from each treatment and control group for each timepoint for expression profile analysis on the Affymetrix Rat Whole Genome RG230 v2 microarray (Affymetrix, Santa Clara, Calif.). Log transformed signal data for all probes were array-wise normalized using the Affymetrix MASS algorithm. Expression log ratios of base 10 (log(10) ratios) were computed as the difference between the logs of the averaged normalized experimental signals and the averaged normalized time-matched vehicle control signals for each gene.

[2] = clinical trials and post-marketing; cited from earlier work

## CN(CCOc1ccc(CC2SC(=O)NC2=O)cc1)c1ccccn1 (stereo not shown) [rosiglitazone]
[1]; rat liver, probe AA891362, Rn.92789, oral gavage, experiments of Table 3
  Average Log (10) Ratio: L-3-hydroxyacyl-Coenzyme A dehydrogenase, short chain: −0.205
[1]; rat liver, probe AA899304, Rn.4054, oral gavage, experiments of Table 3
  Average Log (10) Ratio: acetyl-coenzyme A acetyltransferase 1: 0.546
[1]; rat liver, probe AA945548, Rn.91296, oral gavage, experiments of Table 3
  Average Log (10) Ratio: transferrin: −0.376
[1]; rat liver, probe AF286470, Rn.801, oral gavage, experiments of Table 3
  Average Log (10) Ratio: sterol regulatory element binding factor 1: −0.464
[1]; rat liver, probe AI176576, Rn.6975, oral gavage, experiments of Table 3
  Average Log (10) Ratio: CCAAT/enhancer binding protein (C/EBP), delta: −0.407
[1]; rat liver, probe AI179334, Rn.9486, oral gavage, experiments of Table 3
  Average Log (10) Ratio: fatty acid synthase: −0.182
[1]; rat liver, probe AI385341, Rn.9753, oral gavage, experiments of Table 3
  Average Log (10) Ratio: peroxisome proliferator activated receptor alpha: 0.461
[1]; rat liver, probe AI406700, Rn.9737, oral gavage, experiments of Table 3
  Average Log (10) Ratio: perilipin: 0.137
[1]; rat liver, probe AI713204, Rn.40396, oral gavage, experiments of Table 3
  Average Log (10) Ratio: monoglyceride lipase: 0.439
[1]; rat liver, probe AW526669, Rn.169550, oral gavage, experiments of Table 3
  Average Log (10) Ratio: phosphatidylinositol 3-kinase, C2 domain containing, gamma polypeptide: 0.692
[1]; rat liver, probe AY081195, Rn.40396, oral gavage, experiments of Table 3
  Average Log (10) Ratio: monoglyceride lipase: 0.621
[1]; rat liver, probe BE105603, Rn.4090, oral gavage, experiments of Table 3
  Average Log (10) Ratio: mitogen-activated protein kinase 8: −0.104
[1]; rat liver, probe BF396857, Rn.46942, oral gavage, experiments of Table 3
  Average Log (10) Ratio: ELOVL family member 6, elongation of long chain fatty acids (yeast): 0.495
[1]; rat liver, probe BF398848, Rn.801, oral gavage, experiments of Table 3
  Average Log (10) Ratio: sterol regulatory element binding factor 1: −0.461
[1]; rat liver, probe BF407188, Rn.15135, oral gavage, experiments of Table 3
  Average Log (10) Ratio: RIKEN cDNA 1500016L11 (DBSS): −0.448
[1]; rat liver, probe BG372713, Rn.40396, oral gavage, experiments of Table 3
  Average Log (10) Ratio: monoglyceride lipase: 0.551
[1]; rat liver, probe BG376902, Rn.11094, oral gavage, experiments of Table 3
  Average Log (10) Ratio: Pyruvate carboxylase: −0.172
[1]; rat liver, probe BG377636, Rn.98393, oral gavage, experiments of Table 3
  Average Log (10) Ratio: acetyl CoA transferase-like (DBSS): 0.519
[1]; rat liver, probe BI278687, Rn.117434, oral gavage, experiments of Table 3
  Average Log (10) Ratio: phospholipid transfer protein (DBSS): −0.378
[1]; rat liver, probe BI281656, Rn.39132, oral gavage, experiments of Table 3
  Average Log (10) Ratio: guanine nucleotide binding protein, alpha stimulating, olfactory type: 0.107
[1]; rat liver, probe BI282488, Rn.3786, oral gavage, experiments of Table 3
  Average Log (10) Ratio: acetyl-Coenzyme A acyltransferase 2 (mitochondrial 3-oxoacyl-Coenzyme A thiolase): 0.679
[1]; rat liver, probe BI288209, Rn.44456, oral gavage, experiments of Table 3
  Average Log (10) Ratio: glycerol-3-phosphate acyltransferase, mitochondrial: −0.183
[1]; rat liver, probe BI292438, Rn.79322, oral gavage, experiments of Table 3
  Average Log (10) Ratio: elongation of very long chain fatty acids (FEN1/Elo2, SUR4/Elo3, yeast)-like 3 (DBSS): −0.042
[1]; rat liver, probe BI850137, Rn.83595, oral gavage, experiments of Table 3
  Average Log (10) Ratio: NCI_CGAP_Emb2 cDNA clone IMAGE: 4176354: −0.414
[1]; rat liver, probe BM389330, Rn.18101, oral gavage, experiments of Table 3
  Average Log (10) Ratio: pyruvate dehydrogenase kinase, isoenzyme 3 (mapped): −0.646
[1]; rat liver, probe BM390399, Rn.9437, oral gavage, experiments of Table 3
  Average Log (10) Ratio: 3-hydroxy-3-methylglutaryl-Coenzyme A reductase: 0.392
[1]; rat liver, probe D14989, Rn.91378, oral gavage, experiments of Table 3
  Average Log (10) Ratio: sulfotransferase family 2A, dehydroepiandrosterone (DHEA)-preferring, member 1: 0.570
[1]; rat liver, probe J02582, Rn.32351, oral gavage, experiments of Table 3
  Average Log (10) Ratio: apolipoprotein E: −0.324
[1]; rat liver, probe J02585, Rn.1023, oral gavage, experiments of Table 3
  Average Log (10) Ratio: stearoyl-Coenzyme A desaturase 1: −0.668
[1]; rat liver, probe M14952, Rn.33815, oral gavage, experiments of Table 3
  Average Log (10) Ratio: apolipoprotein B: −0.255
[1]; rat liver, probe M15114, Rn.83595, oral gavage, experiments of Table 3
  Average Log (10) Ratio: NCI_CGAP_Emb2 cDNA clone IMAGE: 4176354: 0.409
[1]; rat liver, probe M30596, Rn.161920, oral gavage, experiments of Table 3
  Average Log (10) Ratio: malic enzyme 1: 0.554
[1]; rat liver, probe NM_012565, Rn.10447, oral gavage, experiments of Table 3
  Average Log (10) Ratio: glucokinase: −1.066
[1]; rat liver, probe NM_012620, Rn.29367, oral gavage, experiments of Table 3
  Average Log (10) Ratio: serine (or cysteine) peptidase inhibitor, clade E, member 1: 0.819
[1]; rat liver, probe NM_012701, Rn.87064, oral gavage, experiments of Table 3
  Average Log (10) Ratio: adrenergic receptor, beta 1: −0.177
[1]; rat liver, probe NM_012735, Rn.91375, oral gavage, experiments of Table 3
  Average Log (10) Ratio: hexokinase 2: −0.330
[1]; rat liver, probe NM_012769, Rn.87228, oral gavage, experiments of Table 3
  Average Log (10) Ratio: guanylate cyclase 1, soluble, beta 3: −0.348
[1]; rat liver, probe NM_012770, Rn.10933, oral gavage, experiments of Table 3
  Average Log (10) Ratio: guanylate cyclase 1, soluble, beta 2: −0.465
[1]; rat liver, probe NM_012806, Rn.9911, oral gavage, experiments of Table 3
  Average Log (10) Ratio: mitogen activated protein kinase 10: 0.458
[1]; rat liver, probe NM_012930, Rn.11389, oral gavage, experiments of Table 3
  Average Log (10) Ratio: carnitine palmitoyltransferase 2: 0.494
[1]; rat liver, probe NM_013134, Rn.9437, oral gavage, experiments of Table 3
  Average Log (10) Ratio: 3-hydroxy-3-methylglutaryl-Coenzyme A reductase: 0.389
[1]; rat liver, probe NM_013174, Rn.7018, oral gavage, experiments of Table 3
  Average Log (10) Ratio: transforming growth factor, beta 3: −0.380
[1]; rat liver, probe NM_013200, Rn.6028, oral gavage, experiments of Table 3
  Average Log (10) Ratio: carnitine palmitoyltransferase 1b, muscle: 0.984
[1]; rat liver, probe NM_017222, Rn.85891, oral gavage, experiments of Table 3
  Average Log (10) Ratio: solute carrier family 10, member 2: −0.544
[1]; rat liver, probe NM_017322, Rn.9910, oral gavage, experiments of Table 3
  Average Log (10) Ratio: mitogen-activated protein kinase 9: −0.348
[1]; rat liver, probe NM_017340, Rn.31796, oral gavage, experiments of Table 3
  Average Log (10) Ratio: acyl-Coenzyme A oxidase 1, palmitoyl: 0.336
[1]; rat liver, probe NM_021578, Rn.40136, oral gavage, experiments of Table 3
  Average Log (10) Ratio: transforming growth factor, beta 1: −0.592
[1]; rat liver, probe NM_022627, Rn.15423, oral gavage, experiments of Table 3
  Average Log (10) Ratio: protein kinase, AMP-activated, beta 2 non-catalytic subunit: −0.211
[1]; rat liver, probe NM_031131, Rn.24539, oral gavage, experiments of Table 3
  Average Log (10) Ratio: transforming growth factor, beta 2: 0.020
[1]; rat liver, probe NM_031559, Rn.2856, oral gavage, experiments of Table 3
  Average Log (10) Ratio: carnitine palmitoyltransferase 1a, liver: 0.264
[1]; rat liver, probe NM_031976, Rn.3619, oral gavage, experiments of Table 3
  Average Log (10) Ratio: protein kinase, AMP-activated, beta 1 non-catalytic subunit: −0.409
[1]; rat liver, probe NM_033352, Rn.177278, oral gavage, experiments of Table 3
  Average Log (10) Ratio: ATP-binding cassette, sub-family D (ALD), member 1 (DBSS): 0.450
[1]; rat liver, probe NM_053329, Rn.164865, oral gavage, experiments of Table 3
  Average Log (10) Ratio: insulin-like growth factor binding protein, acid labile subunit: −0.658
[1]; rat liver, probe NM_053551, Rn.30070, oral gavage, experiments of Table 3
  Average Log (10) Ratio: pyruvate dehydrogenase kinase, isoenzyme 4: 0.442
[1]; rat liver, probe NM_053923, Rn.169550, oral gavage, experiments of Table 3
  Average Log (10) Ratio: phosphatidylinositol 3-kinase, C2 domain containing, gamma polypeptide: −0.485
[1]; rat liver, probe NM_053994, Rn.11126, oral gavage, experiments of Table 3
  Average Log (10) Ratio: pyruvate dehydrogenase E1 alpha 2: −0.338
[1]; rat liver, probe NM_057133, Rn.10712, oral gavage, experiments of Table 3
  Average Log (10) Ratio: nuclear receptor subfamily 0, group B, member 2: 0.367
[1]; rat liver, probe NM_133618, Rn.11253, oral gavage, experiments of Table 3
  Average Log (10) Ratio: hydroxyacyl-Coenzyme A dehydrogenase/3-ketoacyl-Coenzyme A thiolase/enoyl-Coenzyme A hydratase (trifunctional protein), beta subunit: 0.409
[1]; rat liver, probe NM_134382, Rn.4243, oral gavage, experiments of Table 3
  Average Log (10) Ratio: ELOVL family member 5, elongation of long chain fatty acids (yeast): −0.486
[1]; rat liver, probe U08027, Rn.89705, oral gavage, experiments of Table 3
  Average Log (10) Ratio: Glycerol-3-phosphate dehydrate dehydrogenase (mtGPDH) mRNA, 3′UTR: 0.635
[1]; rat liver, probe U36771, Rn.44456, oral gavage, experiments of Table 3
  Average Log (10) Ratio: glycerol-3-phosphate acyltransferase, mitochondrial: −0.156
[1]; rat, in vivo, po
  Average Log (10) Ratio: Cytochrome P450, family 2, subfamily b, polypeptide 2: 0.629
  Average Log (10) Ratio: cytochrome P450, family 2, subfamily b, polypeptide 13: 0.499
  Average Log (10) Ratio: cytochrome P450, family 3, subfamily a, polypeptide 13: 0.550
  Average Log (10) Ratio: cytochrome P450, family 7, subfamily a, polypeptide 1: −0.168
  Average Log (10) Ratio: cytochrome P450, family 8, subfamily b, polypeptide 1: 0.394
[2]
  risk of cardiovascular events: paradoxically increased risk of cardiovascular events
